{
  "source": "ChEMBL document CHEMBL4765389",
  "about": "“Antimicrobial and anti-inflammatory activities of short dodecapeptides derived from duck cathelicidin: Plausible mechanism of bactericidal action and endotoxin neutralization” (Eur J Med Chem, 2020)",
  "system": "Lipopolysaccharide (LPS)",
  "assay": "Displacement of BODIPY-TR cadaverine from Escherichia coli O111:B4 LPS at 10 uM measured for 100 sec by spectrofluorometry relative to control",
  "data": [
    {"substance": "H-LWKKIYRKWKRW-NH2", "values": [
      {"measurement": "Activity", "value": 75, "unit": "%"}
    ]}
  ]
}
